Measured values published in ChEMBL document CHEMBL4330090, “The effect of replacing the ester bond with an amide bond and of overall stereochemistry on the activity of daptomycin” (2019).
In brackets after ≈: the same amount, converted by molar mass. Activity calls are given as the source filed them. No cut-off for these calls is given here.

Experiments:
Bacillus subtilis [1] = experiment: Antibacterial activity against Bacillus subtilis 1046 in presence of 1.25 mM Ca2+; assay type: functional
Bacillus subtilis [2] = experiment: Antibacterial activity against Bacillus subtilis 1046 in presence of 5 mM Ca2+; assay type: functional
Lipid bilayer [3] = experiment: Binding affinity to DMPC/DMPG large unilamellar vesicles assessed as increase in intrinsic fluorescence in presence of >10 mM Ca2+ by fluorescence based assay
Lipid bilayer [4] = experiment: Binding affinity to DMPC/DMPG large unilamellar vesicles assessed as increase in intrinsic fluorescence in presence of 1 mM Ca2+ by fluorescence based assay
Lipid bilayer [5] = experiment: Binding affinity to DMPC/DMPG large unilamellar vesicles assessed as increase in intrinsic fluorescence in presence of 10 mM Ca2+ by fluorescence based assay
Lipid bilayer [6] = experiment: Binding affinity to DMPC/DMPG large unilamellar vesicles assessed as increase in intrinsic fluorescence in presence of >0.1 mM Ca2+ by fluorescence based assay
Staphylococcus aureus = experiment: Antibacterial activity against Staphylococcus aureus; assay type: functional
Lipid bilayer [7] = experiment: Binding affinity to DMPC/DMPG large unilamellar vesicles assessed as increase in intrinsic fluorescence in presence of >1 mM Ca2+ by fluorescence based assay

Structure (SMILES) | MIC (Bacillus subtilis [1]) [µg/mL] | MIC (Bacillus subtilis [2]) [µg/mL] | Activity (Lipid bilayer [3]) | Activity (Lipid bilayer [4]) | Activity (Lipid bilayer [5]) | Activity (Lipid bilayer [6]) | MIC (Staphylococcus aureus) [µg/mL] | Activity (Lipid bilayer [7])
CCCCCCCCCC(=O)N[C@@H](Cc1c[nH]c2ccccc12)C(=O)N[C@@H](CC(N)=O)C(=O)N[C@@H](CC(=O)O)C(=O)N[C@@H]1C(=O)NCC(=O)N[C@@H](CCCCN)C(=O)N[C@@H](CC(=O)O)C(=O)N[C@H](C)C(=O)N[C@@H](CC(=O)O)C(=O)NCC(=O)N[C@H](CO)C(=O)N[C@@H](CCC(=O)O)C(=O)N[C@@H](Cc2c[nH]c3ccccc23)C(=O)N[C@H]1C | > 100 | 10 | Active | – | – | – | – | –
CCCCCCCCCC(=O)N[C@H](Cc1c[nH]c2ccccc12)C(=O)N[C@H](CC(N)=O)C(=O)N[C@@H](CC(=O)O)C(=O)N[C@H]1C(=O)NCC(=O)N[C@H](CCCCN)C(=O)N[C@H](CC(=O)O)C(=O)N[C@@H](C)C(=O)N[C@H](CC(=O)O)C(=O)NCC(=O)N[C@@H](CO)C(=O)N[C@H](CCC(=O)O)C(=O)N[C@H](Cc2c[nH]c3ccccc23)C(=O)O[C@H]1C | > 200 | 100 | – | Active | Active | – | – | –
CCCCCCCCCC(=O)N[C@@H](Cc1c[nH]c2ccccc12)C(=O)N[C@@H](CC(N)=O)C(=O)N[C@@H](CC(=O)O)C(=O)N[C@@H]1C(=O)NCC(=O)N[C@@H](CCCCN)C(=O)N[C@@H](CC(=O)O)C(=O)N[C@H](C)C(=O)N[C@@H](CC(=O)O)C(=O)NCC(=O)N[C@H](CO)C(=O)N[C@@H](CCC(=O)O)C(=O)N[C@@H](Cc2c[nH]c3ccccc23)C(=O)O[C@@H]1C | 1.5 | 0.5 | – | – | – | Active | – | –
CCCCCCCCCC(=O)N[C@@H](Cc1c[nH]c2ccccc12)C(=O)N[C@H](CC(N)=O)C(=O)N[C@@H](CC(=O)O)C(=O)N[C@@H]1C(=O)NCC(=O)N[C@@H](CCCN)C(=O)N[C@@H](CC(=O)O)C(=O)N[C@H](C)C(=O)N[C@@H](CC(=O)O)C(=O)NCC(=O)N[C@H](CO)C(=O)N[C@@H]([C@H](C)CC(=O)O)C(=O)N[C@@H](CC(=O)c2ccccc2N)C(=O)O[C@@H]1C | 0.75 | 0.5 | – | – | – | Active | 1.9 (≈ 1.17 µM) | –
CCCCCCCCCC(=O)N[C@H](Cc1c[nH]c2ccccc12)C(=O)N[C@H](CC(N)=O)C(=O)N[C@@H](CC(=O)O)C(=O)N[C@H]1CNC(=O)[C@@H](Cc2c[nH]c3ccccc23)NC(=O)[C@@H](CCC(=O)O)NC(=O)[C@H](CO)NC(=O)CNC(=O)[C@@H](CC(=O)O)NC(=O)[C@H](C)NC(=O)[C@@H](CC(=O)O)NC(=O)[C@@H](CCCCN)NC(=O)CNC1=O | – | – | – | – | – | – | 160 (≈ 99.9 µM) | –
CCCCCCCCCC(=O)N[C@@H](Cc1c[nH]c2ccccc12)C(=O)N[C@@H](CC(N)=O)C(=O)N[C@@H](CC(=O)O)C(=O)N[C@@H]1C(=O)NCC(=O)N[C@@H](CCCCN)C(=O)N[C@@H](CC(=O)O)C(=O)N[C@H](C)C(=O)N[C@@H](CC(=O)O)C(=O)NCC(=O)N[C@H](CO)C(=O)N[C@@H](CCC(=O)O)C(=O)N[C@@H](Cc2c[nH]c3ccccc23)C(=O)N[C@@H]1C | 50 | 10 | – | – | – | – | – | Active
